The source of these data is patent US7087790B2, “Benzotropolone derivatives and modulation of inflammatory response” (Rutgers, The State University of New Jersey, priority 2003, dated 2006).

The nature of experiment [1]: Oxygen radical absorbance capacity (ORAC) assay with fluorescein probe and AAPH. As to conditions: Trolox equivalents; 0.5 μM; 75 mM phosphate buffer pH 5.5; mean ± SD, n = 4 (a: n = 3). From the text:
In another aspect, the present invention also discloses antioxidant activities of the compositions having benzotropolone containing compounds disclosed herein. Oxygen radical absorbence capacity (ORAC) assay, which is a measure of free radical scavenging ability, is simple and sensitive method to measure the oxygen-radical absorbing capacity. It has been widely used for measuring the antioxidant activity of food and nutraceutical components. ORAC assay was developed by Cao et al., 1993, Free Radical Biol. Med. 14:303–311. In the assay, β-phycoerythrin (β-PE) was used as fluorescent indicator protein and 2,2′-Azobis(2-amidinopropane) dihydrochloride (AAPH) used as a peroxy radical generator. β-PE is a photosynthetic protein found in red algae. β-PE has been used as fluorescent probe because of its distinct excitation and emission wavelength (Ex. 540 nm, Em. 565 nm). The use of β-PE as a fluorescent probe, however, has certain defects. When reactive oxygen species attack the β-PE, it can easily lose the fluorescence. Furthermore, the ORAC value can be affected by possible interaction between polyphenols and proteins. Recently, Ou et al., 2001, J. Agric. Food Chem. 49:4619–4626 reported an improved ORAC method using fluorescein, instead of β-PE, as a fluorescent probe. Accordingly, fluorescein is used as a fluorescent probe in ORAC assays for testing the antioxidant activities of the compounds of the present invention.
Oxygen radical absorbance capacity (ORAC) assay was performed to examine antioxidant activity of individual theaflavins and epitheaflavic acids. All reagents were prepared in 75 mM phosphate buffer (pH 5.5). Reaction mixture consists of 3 mL of Fluorescein solution (8.16×10^−5 mM), 500 μL AAPH (153 mM), and 500 μL of sample solution or blank. Once AAPH was added, fluorescence was measured every 1 min using Hitachi Model F-3010 fluorescence spectrophotometer with emission and excitation wavelength of 515 and 493 nm, respectively. The ORAC value was calculated based on the area under the fluorescence decay curve of fluorescein in the presence of the test compound comparing to the area generated by standard Trolox and blank. The net area under the curve and ORAC values were calculated by the formula presented by Cao et al (Cao et al. 1993).
The relative ORAC value (Trolox equivalents) was calculated with following equation.
The area under curve (AUC) was calculated according to following equation. AUC=1+f1/f0+f2/f0+f3/f0+f4/f0 . . . +f119/f0+f120/f0 f0 is the initial fluorescence reading at 0 min, fi is the fluorescence reading at time i.
Quenching curves representing the peroxyl radical absorbing activity of Trolox in various concentration (0˜4 μM) was used as a standard (data not shown). The net area of quenching curve increased proportionally to an increment of the Trolox concentration. Quenching curves of theaflavins and EGCG were examined (data not shown). […] Quenching curves of epitheaflavic acids and EGCG were also examined. (data not shown).

In experiment [2] the test system is TPA-induced Edema of Mouse Ear. The experiment in a line: TPA-induced ear edema assay (skin inflammation model). The class given is in vivo, female CD-I mice. As to conditions: 0.5 μmol topical in acetone 20 min before TPA (1 nmol); for Average weight of ear punches (mg) (Mean ± SE): 6 mm punches 5 h later; for Percent inhibition %: ear punch weight 5 h later. From the text: In yet another aspect of the invention, the present invention is directed to a method of preventing and/or treating inflammation in an animal using compositions having benzotropolone containing compounds disclosed herein. […] The anti-inflammatory activity (or anti-edema) of benzotropolone containing compounds of the present invention can be tested using 12–0-tetradecanoylphorbol- 13-acetate (TPA) TPA-induced inflammatory skin edema assay. Application of TPA on skin results in induction of omithine decarboxylase activity that increases the polyamine level and epidermal hyperplasia, and inflammation, and pro-inflammatory cytokine (e.g., IL-1β) and prostaglandins (prostaglandin E2) production at the site. The benzotropolone containing compounds can be applied either prior to or subsequent to or simultaneously with the topical application of TPA to skin tissue (e.g. mice ear).
The TPA (12-O-tetradecanoylphorbol-13-acetate)-induced ear edema assay was carried out to examine anti-inflammatory activity of benzotropolone-containing compounds in skin inflammation model. The female CD-I mice (24-25 days old) were topically treated with 20 μl of acetone and benzotropolone-containing compounds in 20 μl of acetone at 20 minutes before topical application of 20 μl of acetone or TPA (1 nmol) in 20 μl of acetone. Then, five hours later, all mice were sacrificed by cervical dislocation. The ear punches (6 mm in diameter) were taken and weighed.

Another experiment concerns TPA-induced ear edema. Conditions: topical; cited from earlier work.

“And” between values parts separate entries of the source, which are not always exact repeats. Identical values can stand only once.

As to `O=C(O[C@@H]1Cc2c(O)cc(O)cc2O[C@@H]1c1cc(=O)c(O)c2c(O)c(O)cc([C@H]3Oc4cc(O)cc(O)c4C[C@H]3O)c2c1)c1cc(O)c(O)c(O)c1` [Theaflavin 3-gallate], the “Relative ORAC value” in experiment [1] is on record as 13.17 ± 0.18. In addition, in experiment [2], the “Average weight of ear punches (mg) (Mean ± SE)” value (from here on “Average weight … (Mean ± SE)”) amounted to 7.86 ± 0.24 mg and the Percent inhibition % is given as 91.5%.
For the compound Neotheaflavate A, in experiment [2], the “Average weight … (Mean ± SE)” value is given as 8.65 ± 0.64 mg and the Percent inhibition % is 85.7%.
For `O=c1c(O)cc([C@H]2Oc3cc(O)cc(O)c3C[C@H]2O)cc2c([C@H]3Oc4cc(O)cc(O)c4C[C@@H]3O)cc(O)c(O)c12` [Neotheaflavin] the same measures were 10.58 ± 0.73 mg and 62.9%.
`O=c1c(O)cc([C@H]2Oc3cc(O)cc(O)c3C[C@H]2O)cc2c([C@H]3Oc4cc(O)cc(O)c4C[C@H]3O)cc(O)c(O)c12` [Theaflavin]: the “Relative ORAC value” in experiment [1] was 11.60 ± 0.30. Further, in experiment [2], the “Average weight … (Mean ± SE)” value is 7.90 ± 0.42 mg and 8.23 ± 0.40 mg; the Percent inhibition % is 89.2% and 87.8%.
Consider Theaflavate A, for which, in experiment [2], the “Average weight … (Mean ± SE)” value is given as 8.52 ± 0.26 mg and the Percent inhibition % was found to be 87.2%.
Regarding “Theaflavin 3,3′-digallate [Theaflavin 3,3′-gallate]”, in experiment [1], the “Relative ORAC value” was 13.54 ± 0.69. Besides, in experiment [2], the “Average weight … (Mean ± SE)” value amounted to 7.03 ± 0.18 mg and the Percent inhibition % is 100.0%. Besides, the “anti-inflammatory activity (rank order, Liang et al.)” value in the experiment on TPA-induced ear edema is on record as “stronger than TF-2”.
Regarding `O=c1c(O)cccc2cc(O)c(O)c(O)c12` [Purprogallin, Purpurogallin], in experiment [1], the “Relative ORAC value” was determined as 6.01 ± 0.42.
With `O=C(OC1Cc2c(O)cc(O)cc2OC1c1cc(O)c(=O)c2c(O)c(O)cc(C3Oc4cc(O)cc(O)c4CC3O)c2c1)c1cc(O)c(O)c(O)c1` (stereo not drawn) [Neotheaflavin 3-gallate], in experiment [2], the “Average weight … (Mean ± SE)” value is on record as 8.42 ± 0.42 mg and the Percent inhibition % was found to be 88.4%.
With `O=C(O[C@@H]1Cc2c(O)cc(O)cc2O[C@@H]1c1cc(O)c(O)c(O)c1)c1cc(O)c(O)c(O)c1` [EGCG, (−)-epigallocatechin-3-gallate, reference compound], the “Relative ORAC value” in experiment [1] was determined as 7.69 ± 0.35. In addition, in experiment [2], the “Average weight … (Mean ± SE)” value worked out at 8.79 ± 0.54 mg and the Percent inhibition % is listed as 68.3%.
For Theaflavin 3′-gallate the same measures were 12.40 ± 0.58, 7.44 ± 0.18 mg and 100.0%.
For Epitheaflavic acid the same measures were 9.74 ± 0.38, 9.39 ± 0.43 mg and 74.4%.
For the compound `O=C(O)c1cc(O)c(=O)c2c(O)c(O)ccc2c1` [GACa], in experiment [2], the “Average weight … (Mean ± SE)” value is 8.61 ± 0.54 mg and the Percent inhibition % is on record as 83.3%.
For Theaflavate B the same measures were 8.35 ± 0.32 mg and 89.2%.
For “Epigallocatechinocatechol gallate [EGCGCa]” the same measures were 7.49 ± 0.12 mg and 96.3%.
For `O=C(O)c1cc(O)c(=O)c2c(O)c(O)cc([C@H]3Oc4cc(O)cc(O)c4C[C@@H]3O)c2c1` [Theaflavic acid], in experiment [2], the “Average weight … (Mean ± SE)” value is 9.28 ± 0.37 mg and 8.95 ± 0.43 mg; the Percent inhibition % was 78.3% and 79.5%.
